Data set [1] deals with erythrocyte morphology. As to the kind of experiment: Influence on erythrocyte morphology in rat blood (damage index). The class given is cell-based. The settings on record: for Erythrocyte morphology Damage index 2 h: six parts blood to one part test substance, 2 h incubation. On the procedure:
Six parts by volume was mixed with one part by volume of each test substance. The mixtures were examined with and optical microscope immediately, 1 hour and 2 hours after incubation in terms of a damage index of blood cells.

A short description of data set [2]: Osmolality of contrast media formulations (vapor pressure osmometer). The class given is physicochemical. On the procedure:
(§1) For this purpose contrast media formulation with a molar concentration of […] for monomeric compounds and of […] for dimeric compounds, equivalent to a iodine concentration of 300 mgI/mL or 189 mgBr/mL were prepared at neutral pH. After heat sterilization under standard conditions for 20 min at 120°C changes in pH and free bromine and iodine was measured. The osmolality was measured at 37°C using a Knauer vapor pressure osmometer. Viscosity of contrast media formulations was determined using a Schott capillary viscosimeter which was standardized with water.

Data set [3] can be described thus: Viscosity of contrast media formulations (capillary viscosimeter). The class given is physicochemical. The settings on record: formulations 0.788 (monomer) or 0.394 (dimer) mol/L. How it is done:
as §1

Data set [4] is described as follows: Aqueous solubility. The class given is physicochemical.
Data set [5] is described as follows: in vivo. Conditions: male, mouse, iv.
From the text: (§2) The behavior of the animals and the lethality was monitored for 7 days post injection.
The nature of data set [6]: Pharmacokinetic profile after intravenous administration of 3H-labelled compound. The class given is in vivo, male Sprague-Dawley rats. The settings on record: rats. How it is done: The pharmacokinetic profile of example 4 was examined after intravenous administration of 3H-labelled example 4 to male Sprague-Dawley rats. For this purpose example 4 was labeled with tritium of a chemical concentration of 300 mg / mL and a radioactive concentration of 2.75 MBq/mL. After intravenous injection in the right jugular vein via a catheter at a dose of 600 mg EXAMPLE 4/kg blood samples of 400 µl were collected in plastic tubes at 0.083, 0.25, 0.5, 1, 2, 4, 6, 8 and 24 hours after administration. Plasma samples were obtained after blood sample centrifugation at 250 g for 10 min. After injection, the rats were transferred in metabolic cages allowing the collection of urine and faeces at different intervals. Aliquots of 100 µl of samples with blood or urine were added to 10 ml of scintillation cocktail and the radioactivity was measured by means of a Tricor-2500 TR automatic scintillation spectrometer. Faeces samples were freeze-dried for two days. They were milled and aliquots of 50 or 100 mg were taken, moistened with 1 mL water and digested with Soluene-350® and 1 mL of isopropyl alcohol at 50 °C for 24 hours. Digested faeces samples were bleached and radioactivity was measured as mentioned above. Plasma levels of example 4 and mean cumulative urinary and faecal excretion data were fitted to a two-compartment model. Curve fit and evaluation of kinetic parameters was performed on the TOP-Fit v 2.0β program.

Data set [7] can be described thus: Phantom studies with conventional mammography (X-ray absorption of contrast media in agar discs). Conditions: 10 mm agar discs in 5 cm water phantom, film mammography. On the procedure:
The agar pieces were prepared in cell-culture well-plates having a diameter of 24 mm and a final height of 10 mm. After formation of solid agar the agar discs were placed in a water phantom containing 5 cm height of water. Additionally a control agar disc prepared with physiological saline instead of CM volume was added. The whole phantom was imaged with a commercial available mammograph at various energies of 30 kV, 25 and 20 kV and 140 mAs. After exposure the mammographic films were developed according to standard quality guidelines. Later the films were digitized and signal intensities of the agar discs and surrounding water background were measured with a imaging analyzing software.

Data set [8] concerns male Sprague-Dawley mice. As to the kind of experiment: Acute tolerance, approximate LD50 after single intravenous injection.
From the text: as §2
Where [9] appears, read: i.v. 600 mg/kg, two-compartment model.

By LD50 is commonly meant the dose expected to kill half of the subjects tested.

Molecules are shown by their SMILES.

As for `CC(=O)N(CC(O)CO)c1c(I)c(C(=O)NCC(O)CO)c(I)c(C(=O)NCC(O)CO)c1I` (centres unmarked) [Iohexol, 5-[N-(2,3-dihydroxypropyl)acetylamino]-2,4,6-triiodo-N,N'-bis-(2,3-dihydroxypropyl)isoph-thalamide, reference compound], in data set [1], the “Erythrocyte morphology Damage index 2 h” value turned out to be 1.31.

With `CN(C(=O)CC(=O)N(C)c1c(I)c(C(=O)NC(CO)C(O)CO)c(I)c(C(=O)NC(CO)C(O)CO)c1I)c1c(I)c(C(=O)NC(CO)C(O)CO)c(I)c(C(=O)NC(CO)C(O)CO)c1I` (centres unmarked) [Iotrolan, N,N'-bis-[2,4,6-triiodo-3,5-bis-[N-(1-hydroxymethyl-2,3-dihydroxypropyl)carbamoyl]phenyl]-N,N'-dimethylmalonamide, reference compound], the “Osmolality b) dimer, 0.394 mol/L, 37° C” value in data set [2] amounted to 320 mOsm/kg water. Further, the “Viscosity (37°C)” value in data set [3] was 8.5 mPa·s. The “Erythrocyte morphology Damage index 2 h” value in data set [1] is recorded as 0.69. For the same compound, the Aqueous solubility in data set [4] is listed as greater than 400 mgBr/mL. This compound also came in with a median lethal dose (LD50) at 7 days in data set [5] (Sprague-Dawley) of 63000 µmol/kg.

`CN(CC(O)CO)C(=O)c1c(Br)c(NC(=O)CO)c(Br)c(C(=O)NCC(O)CO)c1Br` (centres unmarked) [Example 4, 2,4,6-tribromo-5-hydroxyacetylamino-N,N'-bis-(2,3-dihydroxypropyl)-N-methylisophthalamide]: the “Osmolality a) monomer, 0.788 mol/L, 37°C” value in data set [2] was determined as 818 mOsm/kg water. Moreover, the “Viscosity (37°C)” value in data set [3] is reported as 3.5 mPa·s. In data set [6] (24 h p.i.), the in faeces measured is on record as 5.1 % I.D and the “in the urine detected” value was found to be 63.7 % I.D. Also, the “metabolisation (bile fluid, HPLC-analysis)” value in data set [6] (bile collected via catheter in the bile duct) is listed as “no metabolisation”. For the same compound, the cumulative faecal excretion in data set [6] (i.v. 600 mg/kg, at 24 h) is given as 5.39 % of injected dose. Besides, the cumulative urinary excretion in data set [6] (i.v. 600 mg/kg, at 24 h p.i.) is reported as 62.8 % of injected dose. Further, in data set [6] (setting [9]), the “distribution volume Vc” value came out at 0.26 L/kg, the “t½ α” value came out at 11.4 min and the “t½ β” value amounted to 31.2 min. Besides, in data set [1], the “influence on erythrocyte morphology compared to iodinated reference substances” value is reported as “substantially less influence on erythrocyte morphology than the iodinated reference substances” and the “Erythrocyte morphology Damage index 2 h” value was 0.82. Further, in data set [7], the “detectable down to concentrations” value is 1.31 mmol/L and the “detectable down to concentrations, moles equivalent to mg I/mL of Iohexol” value is listed as 0.5 mg I/mL. Besides, the Aqueous solubility in data set [4] is reported as greater than 400 mgBr/mL. The “increase of the tolerability with respect to the iodinated and brominated reference compounds” value (shortened to “increase of the tolerability”) in data set [8] is recorded as 13 - 23%.

With `NC(=O)c1c(Br)c(C(=O)NC(CO)C(O)CO)c(Br)c(N(CCO)C(=O)CO)c1Br` (centres unmarked) [Example 14, 2,4,6-tribromo-5-[N-(2-hydroxyethyl)hydroxyacetylamino]-N-(1-hydroxymethyl-2,3-dihydroxypropyl)isophthalamide], the “Osmolality a) monomer, 0.788 mol/L, 37°C” value in data set [2] is 500 mOsm/kg water. The “Viscosity (37°C)” value in data set [3] stood at 3.4 mPa·s. In data set [1], the “influence on erythrocyte morphology compared to iodinated reference substances” value is on record as “substantially less influence on erythrocyte morphology than the iodinated reference substances” and the “Erythrocyte morphology Damage index 2 h” value was 0.88. Moreover, the Aqueous solubility in data set [4] was greater than 400 mgBr/mL. The “increase of the tolerability” value in data set [8] was 13 - 23%.

Take `CN(C(=O)CC(=O)N(C)c1c(Br)c(C(=O)NC(CO)C(O)CO)c(Br)c(C(=O)NC(CO)C(O)CO)c1Br)c1c(Br)c(C(=O)NC(CO)C(O)CO)c(Br)c(C(=O)NC(CO)C(O)CO)c1Br` (centres unmarked) [Example 26, N,N'-bis-[2,4,6-tribromo-3,5-bis-[N-(1-hydroxymethyl-2,3-dihydroxypropyl)carbamoyl]phenyl]-N,N'-dimethylmalonamide]: the “Osmolality b) dimer, 0.394 mol/L, 37° C” value in data set [2] is 370 mOsm/kg water. In data set [3], the “Viscosity (37°C)” value worked out at 6.3 mPa·s. Also, in data set [1], the “influence on erythrocyte morphology compared to iodinated reference substances” value is listed as “substantially less influence on erythrocyte morphology than the iodinated reference substances” and the “Erythrocyte morphology Damage index 2 h” value was 0.51. In data set [4], this compound had an Aqueous solubility of 400 mgBr/mL. Besides, the “increase of the tolerability” value in data set [8] was 13 - 23%.

Turning to `NC(=O)c1c(Br)c(C(=O)NCC(O)CO)c(Br)c(N(CC(O)CO)C(=O)CC(=O)N(CC(O)CO)c2c(Br)c(C(N)=O)c(Br)c(C(=O)NCC(O)CO)c2Br)c1Br` (centres unmarked) [Example 25, N,N'-bis-[2,4,6-tribromo-5-carbamoyl-3-[N-(2,3-dihydroxypropyl)carbamoyl]phenyl]-N,N'-bis-(2,3-dihydroxypropyl)-malonamide], the “Osmolality b) dimer, 0.394 mol/L, 37° C” value in data set [2] worked out at 320 mOsm/kg water. For the same compound, the “Viscosity (37°C)” value in data set [3] was 5.5 mPa·s. Further, in data set [1], the “influence on erythrocyte morphology compared to iodinated reference substances” value is recorded as “substantially less influence on erythrocyte morphology than the iodinated reference substances” and the “Erythrocyte morphology Damage index 2 h” value came out at 0.45. Besides, the Aqueous solubility in data set [4] is 400 mgBr/mL. Further, the “increase of the tolerability” value in data set [8] is on record as 13 - 23%.

Take `CC(=O)N(CC(O)CO)c1c(Br)c(C(=O)NCC(O)CO)c(Br)c(C(=O)NCC(O)CO)c1Br` (centres unmarked) [reference compound]: the “Osmolality a) monomer, 0.788 mol/L, 37°C” value in data set [2] is listed as 908 mOsm/kg water. Besides, in data set [3], the “Viscosity (37°C)” value was determined as 4.6 mPa·s. Moreover, the Aqueous solubility in data set [4] is listed as greater than 300 mgBr/mL. Also, the median lethal dose (LD50) at 7 days in data set [5] is roughly 59000 µmol/kg.

The values above are taken from patent EP1186305A1 (Schering Aktiengesellschaft, priority 2000, dated 2002).
